From patent US6686371B2, “Non-steroidal, tetracylic compounds for estrogen-related treatments” (Akzo Nobel N.V., priority 2000, dated 2004)

Experiments:
[1] = molecular target: T1, human estrogen receptor β receptor (hERβ) (Homo sapiens, UniProt Q92731); assay: transactivation assay, estrogenic activity, recombinant CHO cells co-transfected with hERβ, rat oxytocin promoter and luciferase reporter; format: cell-based; details: for ERβ Transactivation (Potency Transactivation (ERβ)): potency % relative to 17β-estradiol, CHO cells, hERβ, luciferase reporter; for β/α ratio Transactivation: ratio of transactivation potency hERβ over hERα
T1 construct: expressed in transfected cells; host or cells: Chinese hamster ovary (CHO) cells, stably co-transfected with hERβ, rat oxytocin promoter and luciferase reporter
Experimental: (§1) Compounds are tested for their estrogen receptor activity in a binding assay and in a transactivation assay.
The estrogenic and antiestrogenic activity of compounds is determined in an in vitro bioassay with recombinant Chinese hamster ovary (CHO) cells stably co-transfected with the human estrogen receptor α (hERα) or β receptor (hERβ), the rat oxytocin promoter (RO) and the luciferase reporter gene (LUC). The estrogenic activity (potency ratio) of a test compound to stimulate the transactivation of the enzyme luciferase mediated via the estrogen receptors hERα or hERβ is compared with the standard estrogen estradiol. The antiestrogenic activity (potency ratio) of a test compound to inhibit the transactivation of the enzyme luciferase mediated via the estrogen receptors hERα or hERβ by the estrogen estradiol is compared with the standard ICI 164.384 (=(7α,17β)-N-butyl-3,17-dihydroxy-N-methylestra-1,3,5(10)-triene-7-undecanamide).

[2] = molecular target: T1, human estrogen receptor β receptor (hERβ); assay: competitive binding to cytoplasmic human estrogen receptor β from recombinant CHO cells; details: % relative to 17β-estradiol, cytosol of recombinant CHO cells; for ERβ Binding (Potency Binding (ERβ)): Table 1; for Binding ERβ: Table 2
Experimental: as §1
(§2) Determination of competitive binding to cytoplasmic human estrogen receptor α or β from recombinant CHO cells is used to estimate the relative affinity (potency ratio) of a test compound for estrogen receptors present in the cytosol of recombinant Chinese hamster ovary (CHO) cells, stably transfected with the human estrogen receptor α (hERα) or β receptor (hERβ), as compared with estradiol (E2).

[3] = molecular target: T2, human estrogen receptor α (hERα) (Homo sapiens, UniProt P03372); assay: competitive binding to cytoplasmic human estrogen receptor α from recombinant CHO cells; details: % relative to 17β-estradiol; cytosol of recombinant CHO cells; Table 2
T2 construct: expressed in transfected cells; host or cells: cytosol of recombinant Chinese hamster ovary (CHO) cells stably transfected with hERα
T2 sequence (P03372 1-595): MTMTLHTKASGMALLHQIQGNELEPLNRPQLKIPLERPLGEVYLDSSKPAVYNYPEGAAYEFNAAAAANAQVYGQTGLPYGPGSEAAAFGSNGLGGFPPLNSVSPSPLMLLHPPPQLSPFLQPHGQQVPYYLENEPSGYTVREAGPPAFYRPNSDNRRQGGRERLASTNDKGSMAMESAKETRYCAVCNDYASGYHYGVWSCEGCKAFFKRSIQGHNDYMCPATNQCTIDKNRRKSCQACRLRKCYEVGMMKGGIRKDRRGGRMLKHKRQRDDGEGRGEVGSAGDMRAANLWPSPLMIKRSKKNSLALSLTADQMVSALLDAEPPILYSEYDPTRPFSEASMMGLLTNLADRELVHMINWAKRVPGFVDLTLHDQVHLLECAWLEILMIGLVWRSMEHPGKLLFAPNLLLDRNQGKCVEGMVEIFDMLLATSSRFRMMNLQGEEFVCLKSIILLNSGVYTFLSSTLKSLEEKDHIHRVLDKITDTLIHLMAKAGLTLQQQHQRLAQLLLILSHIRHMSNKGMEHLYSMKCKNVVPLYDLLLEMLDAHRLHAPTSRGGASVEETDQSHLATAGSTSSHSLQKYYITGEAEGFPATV
Experimental: as §1, §2

T1 sequence (Q92731 whole entry): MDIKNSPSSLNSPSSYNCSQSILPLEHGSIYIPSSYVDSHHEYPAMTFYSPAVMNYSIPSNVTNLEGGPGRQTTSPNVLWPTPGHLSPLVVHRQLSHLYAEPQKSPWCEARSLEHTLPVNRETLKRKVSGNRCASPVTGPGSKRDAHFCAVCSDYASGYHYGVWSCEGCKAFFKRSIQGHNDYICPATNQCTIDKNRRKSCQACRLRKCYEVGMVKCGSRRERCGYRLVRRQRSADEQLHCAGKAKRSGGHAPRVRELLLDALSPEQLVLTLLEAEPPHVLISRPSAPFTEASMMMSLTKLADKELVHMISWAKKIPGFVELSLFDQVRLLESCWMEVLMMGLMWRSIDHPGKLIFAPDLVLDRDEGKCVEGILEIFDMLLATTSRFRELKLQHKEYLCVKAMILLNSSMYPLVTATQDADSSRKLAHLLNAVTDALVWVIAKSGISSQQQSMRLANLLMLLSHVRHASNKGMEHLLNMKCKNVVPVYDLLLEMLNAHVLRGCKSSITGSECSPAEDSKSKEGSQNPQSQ

Compound | ERβ Transactivation (Potency Transactivation (ERβ)) [1] | β/α ratio Transactivation [1] | ERβ Binding (Potency Binding (ERβ)) [2] | Binding ERα [3] | melting point | Binding ERβ [2]
10-chloro-1,1-dimethyl-2,8-dihydroxy-11H-indeno[1,2-b]quinoline [Compound 7d] | – | – | – | +++ (between 3.5-8%) | – | –
CC(C)(C)C(=O)Oc1ccc2c(c1)Cc1c-2cc2ccc(OC(=O)C(C)(C)C)cc2c1Cl [Compound 68a, di-pivaloyl Ester of 2,8-dihydroxy-10-chloro-11H-benzo[b]fluorene] | ++ (between 4-10%) | +++ (>30) | – | – | – | –
CCCC(=O)Oc1ccc2c(c1)Cc1c-2nc2ccc(OC(=O)CCC)cc2c1Cl [Compound 2c, Dibutyryl Ester of 10-chloro-2,8-dihydroxy-1H-indeno[1,2-b]quinoline] | ++ (between 4-10%) | ++ (between 10-30) | – | – | – | –
Oc1ccc(-c2c3c(cc4ccc(O)cc24)-c2ccc(O)cc2CC3)cc1 [Compound 16a, 3,9-dihydroxy-7-(4-hydroxyphenyl)-5,6-dihydro-benz[a]anthracene] | – | – | – | – | 272 °C | –
COc1ccc2c(c1)Cc1c-2nc2ccc(OC)cc2c1Cl [Compound 2a, 10-chloro-2,8-dimethoxy-11H-indeno[1,2-b]quinoline] | ++ (between 4-10%) | + (between 3.5-10) | ++ (between 2-10%) | – | – | –
CCCc1c2c(c(Cl)c3ccc(O)cc13)-c1ccc(O)cc1C2 [Compound 22, 2,8-dihydroxy-5-chloro-10-propyl-11H-benzo[b]fluorene] | – | – | – | – | 223 to 224 °C | –
Oc1ccc2c(c1)Cc1cc3ccc(O)cc3cc1-2 [Compound 25, 2,7-dihydroxy-11H-benzo[b]fluorene] | + (between 0.1-4%) | − (<3.5) | ++ (between 2-10%) | – | – | –
Oc1ccc2c(c1)Cc1c-2nc2ccc(O)cc2c1Br [Compound 7b, 10-bromo-2,8-dihydroxy-11H-indeno[1,2-b]quinoline] | – | – | – | − (<0.3%) | – | ++ (between 1.5-3.5%)
CCc1c2c(c(Cl)c3ccc(O)cc13)-c1ccc(O)cc1C2 [Compound 40, 2,8-dihydroxy-5-chloro-10-ethyl-11H-benzo[b]fluorene] | – | – | – | – | 250 to 251 °C | –
CCCC(=O)Oc1ccc2c(c1)Cc1c-2nc2ccc(OC(=O)CCC)cc2c1Br [Compound 2d, Dibutyryl Ester of 10-bromo-2,8-dihydroxy-11H-indeno[1,2-b]quinoline] | + (between 0.1-4%) | ++ (between 10-30) | – | – | – | –
Cc1c(O)ccc2c1Cc1c-2nc2ccc(O)cc2c1Cl [Compound 7c, 10-chloro-1-methyl-2,8-dihydroxy-11H-indeno[1,2-b]quinoline] | – | – | – | + (between 0.1-1.5%) | – | ++ (between 1.5-3.5%)
Oc1ccc2c(c1)Cc1c-2nc2ccc(O)cc2c1Cl [Compound 7a, 10-chloro-2,8-dihydroxy-11H-indenol[1,2-b]quinoline] | – | – | – | − (<0.3%) | – | +++ (between 3.5-8%)
Oc1ccc2nc3c(c(Cl)c2c1)-c1cccc(O)c1CC3 [Compound 8, 12-chloro-4,10-dihydroxy-5,6-dihydro-benz[a]acridine] | – | – | – | ++ (between 1.5-3.5%) | – | ++ (between 1.5-3.5%)
Oc1ccc2c(c1)Cc1c-2nc2ccc(O)cc2c1-c1ccccc1 [Compound 5, 10-phenyl-2,8-dihydroxy-11H-indeno[1,2-b]quinoline] | − (<0.1%) | – | ++ (between 2-10%) | – | – | –
Oc1ccc2c(c1)CCc1c-2nc2ccc(O)cc2c1Cl [Compound 10, 7-chloro-3,9-dihydroxy-5,6-dihydro-benz[c]acridine] | – | – | – | ++++ (>8%) | – | ++++ (>8%)
COc1ccc2c(c1)Cc1c-2nc2ccc(OC)cc2c1Br [Compound 2b, 10-bromo-2,8-dimethoxy-11H-indeno[1,2-b]quinoline] | + (between 0.1-4%) | ++ (between 10-30) | ++ (between 2-10%) | – | – | –
Oc1ccc2c(c1)CCc1c-2cc2ccc(O)cc2c1C1CCCC1 [Compound 16, 3,9-dihydroxy-7-cyclopentyl-5,6-dihydro-benz[a]anthracene] | – | – | – | – | 233 to 235 °C | –

Next, values leading:

ERβ Transactivation (Potency Transactivation (ERβ)) [1] | β/α ratio Transactivation [1] | ERβ Binding (Potency Binding (ERβ)) [2] | Binding ERα [3] | melting point | Binding ERβ [2] | Compound
+++ (>10%) | +++ (>30) | +++ (>10%) | – | – | – | Oc1ccc2c(c1)Cc1c-2cc2ccc(O)cc2c1Cl [Compound 67a, 2,8-dihydroxy-10-chloro-11H-benzo[b]fluorene]
– | – | – | – | 250 °C | – | CCCc1c2c(c(CCC)c3ccc(O)cc13)-c1ccc(O)cc1C2 [Compound 57, 2,8-dihydroxy-5,10-dipropyl-11H-benzo[b]fluorene]
+ (between 0.1-4%) | + (between 3.5-10) | ++ (between 2-10%) | – | – | – | Oc1ccc2c(c1)Cc1cc3cc(O)ccc3cc1-2 [Compound 69, 2,8-dihydroxy-11H-benzo[b]fluorene]
– | – | – | – | 255 °C (dec.) | – | CCc1c2c(c(CC)c3ccc(O)cc13)-c1ccc(O)cc1C2 [Compound 47, 2,8-dihydroxy-5,10-diethyl-11H-benzo[b]fluorene]
+++ (>10%) | +++ (>30) | +++ (>10%) | – | – | – | Oc1ccc2c(c1)Cc1c-2cc2ccc(O)cc2c1Br [Compound 67b, 2,8-dihydroxy-10-bromo-11H-benzo[b]fluorene]
– | – | – | – | 211 to 212 °C | – | Oc1ccc2c(c1)Cc1c-2cc2ccc(O)cc2c1C=C(F)F [Compound 50, 2,8-dihydroxy-10-(2,2-difluoro-ethenyl)-11H-benzo[b]fluorene]
+ (between 0.1-4%) | ++ (between 10-30) | ++ (between 2-10%) | – | 265 °C | – | Cc1c2c(cc3ccc(O)cc13)-c1ccc(O)cc1C2 [Compound 67d, 2,8-dihydroxy-10-methyl-11H-benzo[b]fluorene]
+++ (>10%) | +++ (>30) | +++ (>10%) | – | – | – | Oc1ccc2c(c1)Cc1c-2cc2ccc(O)cc2c1I [Compound 67c, 2,8-dihydroxy-10-iodo-11H-benzo[b]fluorene]
++ (between 4-10%) | ++ (between 10-30) | +++ (>10%) | – | – | – | Oc1ccc2c(c1)Cc1c-2cc2ccc(O)cc2c1C(F)(F)F [Compound 67e, 2,8-dihydroxy-10-trifluoromethyl-11H-benzo[b]fluorene]
– | – | – | – | 215 to 220 °C | – | CC1c2cc(O)ccc2-c2c1cc1cc(O)ccc1c2Cl (stereo not drawn) [Compound 54, 2,8-dihydroxy-5-chloro-11-methyl-11H-benzo[b]fluorene]
+++ (>10%) | +++ (>30) | +++ (>10%) | ++ (between 1.5-3.5%) | – | ++++ (>8%) | Oc1ccc2c(c1)Cc1cc3cc(O)ccc3c(Cl)c1-2 [Compound 60, 2,8-dihydroxy-5-chloro-11H-benzo[b]fluorene]
